In brackets after ≈: the same amount, converted by molar mass. One block for each molecule: values may come before it.
Assays:
[1] = system: Liver microsomes; assay: Oxidative metabolism in rat liver microsomes assessed as compound remaining; format: ADME, Microsome
[2] = Plasma concentration in FVB mouse at 3 mg/kg, po at 3 hrs; format: ADME, organism-based; design: dose 3 mg/kg, route oral
[3] = system: Mus musculus; assay: Toxicity in FVB mouse assessed as effect on Hes-1 mRNA level in thymus at 3 mg/kg, po administered as single dose measured at 3 hrs; format: organism-based; design: dose 3 mg/kg, route oral; conditions: in vivo
[4] = system: Mus musculus; assay: Toxicity in FVB mouse assessed as effect on Hes-1 mRNA level in thymus at 10 mg/kg, po administered as single dose measured at 3 hrs; format: organism-based; design: dose 10 mg/kg, route oral; conditions: in vivo
[5] = Aqueous solubility of the compound; format: physicochemical; conditions: buffer
[6] = system: Liver; assay: Glucuronidation metabolism in dog liver microsomes assessed as compound remaining; format: ADME, Canis lupus familiaris, Microsome
[7] = Drug uptake in FVB mouse brain at 30 mg/kg, po at 3 hrs; format: ADME, organism-based; design: dose 30 mg/kg, route oral; conditions: read-out: Drug uptake
[8] = system: Liver; assay: Oxidative metabolism in mouse liver microsomes assessed as compound remaining; format: ADME, Microsome
[9] = system: Liver microsomes; assay: Glucuronidation metabolism in rat liver microsomes assessed as compound remaining; format: ADME, Microsome
[10] = species: Rattus norvegicus; assay: Systemic clearance in rat relative to hepatic blood flow; format: ADME, organism-based, Liver; conditions: in vivo
[11] = system: CHO; assay: Inhibition of gamma-secretase in CHO cells assessed expressing NotchdeltaE assessed as inhibition of notch cleavage after overnight incubation by luciferase reporter gene assay; format: cell-based; conditions: Cricetulus griseus
[12] = target: Gamma-secretase; assay: Inhibition of partially purified human gamma-secretase-mediated cleavage of MBP-APPc125Sw fusion protein measured after overnight incubation by ELISA; format: protein-complex assay
[13] = system: CHO; assay: Inhibition of gamma-secretase in CHO cells assessed expressing APPSw assessed as inhibition of amyloid beta(1 to x) secretion after overnight incubation by ELISA; format: cell-based; conditions: Cricetulus griseus
[14] = system: Mus musculus; assay: Toxicity in FVB mouse assessed as effect on Hes-1 mRNA level in thymus at 30 mg/kg, po administered as single dose measured at 3 hrs; format: organism-based; design: dose 30 mg/kg, route oral; conditions: in vivo
[15] = system: Mus musculus; assay: Reduction in amyloid beta (x to 40) in FVB mouse cortex at 30 mg/kg, po administered as single dose measured at 3 hrs; format: functional; design: scale not given: the % may be the effect or the level left
[16] = system: Mus musculus; assay: Toxicity in FVB mouse assessed as effect on Hes-1 mRNA level in thymus at 1 mg/kg, po administered as single dose measured at 3 hrs; format: organism-based; design: dose 1 mg/kg, route oral; conditions: in vivo
[17] = system: Brain; assay: AUC (0 to 3 hrs) in FVB mouse brain at 30 mg/kg, po; format: ADME, organism-based; design: time < 3 hr, dose 30 mg/kg, route oral; conditions: in vivo
[18] = system: Plasma; assay: AUC (0 to 3 hrs) in FVB mouse plasma at 10 mg/kg, po; format: ADME, organism-based; design: time < 3 hr, dose 10 mg/kg, route oral; conditions: in vivo
[19] = system: Brain; assay: AUC (0 to 3 hrs) in FVB mouse brain at 10 mg/kg, po; format: ADME, organism-based; design: time < 3 hr, dose 10 mg/kg, route oral; conditions: in vivo
[20] = Oral bioavailability in rat; format: ADME, organism-based; conditions: in vivo
[21] = system: Plasma; assay: AUC (0 to 3 hrs) in FVB mouse plasma at 1 mg/kg, po; format: ADME, organism-based; design: time < 3 hr, dose 1 mg/kg, route oral; conditions: in vivo
[22] = Drug uptake in FVB mouse brain at 1 mg/kg, po at 3 hrs; format: ADME, organism-based; design: dose 1 mg/kg, route oral; conditions: read-out: Drug uptake
[23] = system: Liver; assay: Glucuronidation metabolism in mouse liver microsomes assessed as compound remaining; format: ADME, Microsome
[24] = target: Gamma-secretase (Homo sapiens) (UniProt Q96BI3+Q9NZ42+Q8WW43+P49768+Q92542+P49810); assay: Selctivity ratio of IC50 for partially purified human gamma-secretase-mediated cleavage of notch fusion protein to IC50 for partially purified human gamma-secretase-mediated cleavage of MBP-APPc125Sw fusion protein; format: protein-complex assay
[25] = Plasma concentration in FVB mouse at 30 mg/kg, po at 3 hrs; format: ADME, organism-based; design: dose 30 mg/kg, route oral
[26] = Drug uptake in FVB mouse brain at 10 mg/kg, po at 3 hrs; format: ADME, organism-based; design: dose 10 mg/kg, route oral; conditions: read-out: Drug uptake
[27] = system: Liver microsomes; assay: Glucuronidation metabolism in human liver microsomes assessed as compound remaining; format: ADME, Microsome
[28] = Plasma concentration in FVB mouse at 10 mg/kg, po at 3 hrs; format: ADME, organism-based; design: dose 10 mg/kg, route oral
[29] = system: Mus musculus; assay: Reduction in amyloid beta (x to 40) in FVB mouse cortex at 10 mg/kg, po administered as single dose measured at 3 hrs; format: functional; design: scale not given: the % may be the effect or the level left
[30] = system: Liver microsomes; assay: Oxidative metabolism in human liver microsomes assessed as compound remaining; format: ADME, Microsome
[31] = target: Gamma-secretase; assay: Inhibition of partially purified human gamma-secretase-mediated cleavage of notch fusion protein measured after overnight incubation by ELISA; format: protein-complex assay
[32] = system: Mus musculus; assay: Reduction in amyloid beta (x to 40) in FVB mouse cortex at 1 mg/kg, po administered as single dose measured at 3 hrs; format: functional; design: scale not given: the % may be the effect or the level left
[33] = system: Liver; assay: Oxidative metabolism in dog liver microsomes assessed as compound remaining; format: ADME, Canis lupus familiaris, Microsome
[34] = system: Brain; assay: AUC (0 to 3 hrs) in FVB mouse brain at 1 mg/kg, po; format: ADME, organism-based; design: time < 3 hr, dose 1 mg/kg, route oral; conditions: in vivo
[35] = system: Homo sapiens; assay: Hepatic toxicity in po dosed healthy human administered as gelatin capsule; format: organism-based; conditions: in vivo
[36] = Drug uptake in FVB mouse brain at 3 mg/kg, po at 3 hrs; format: ADME, organism-based; design: dose 3 mg/kg, route oral; conditions: read-out: Drug uptake
[37] = system: Plasma; assay: AUC (0 to 3 hrs) in FVB mouse plasma at 30 mg/kg, po; format: ADME, organism-based; design: time < 3 hr, dose 30 mg/kg, route oral; conditions: in vivo
[38] = Passive permebility in wild-type MDCK cells; format: ADME, cell-based, Canis lupus familiaris; conditions: dog, read-out: permeability
[39] = Systemic clearance in rat; format: ADME, organism-based; conditions: in vivo
[40] = Plasma concentration in FVB mouse at 1 mg/kg, po at 3 hrs; format: ADME, organism-based; design: dose 1 mg/kg, route oral
[41] = system: Brain; assay: AUC (0 to 3 hrs) in FVB mouse brain at 3 mg/kg, po; format: ADME, organism-based; design: time < 3 hr, dose 3 mg/kg, route oral; conditions: in vivo
[42] = system: Mus musculus; assay: Reduction in amyloid beta (x to 40) in FVB mouse cortex at 3 mg/kg, po administered as single dose measured at 3 hrs; format: functional; design: scale not given: the % may be the effect or the level left
[43] = Octanol-water partition co-efficient, log P of the compound by shake-flask method; format: physicochemical
[44] = system: CHO; assay: Selctivity ratio of ED50 for gamma-secretase in CHO cells assessed expressing NotchdeltaE assessed as inhibition of notch cleavage to ED50 for gamma-secretase in CHO cells assessed expressing APPSw assessed as inhibition of amyloid beta(1 to x) secretion; format: cell-based; conditions: Cricetulus griseus
[45] = system: Plasma; assay: AUC (0 to 3 hrs) in FVB mouse plasma at 3 mg/kg, po; format: ADME, organism-based; design: time < 3 hr, dose 3 mg/kg, route oral; conditions: in vivo
[46] = system: Mus musculus; assay: Reduction in amyloid beta (x to 40) in po dosed FVB mouse brain administered as single dose measured at 3 hrs; format: functional
[47] = system: Cynomolgus monkey; assay: Hepatic toxicity in cynomolgus monkey administered for 1 year as repeated-dosing; format: organism-based, Macaca fascicularis; conditions: in vivo
[48] = system: Rattus norvegicus; assay: Hepatic toxicity in rat administered for 6 months as repeated-dosing; format: organism-based; conditions: in vivo
[49] = system: Mus musculus; assay: Selectivity ratio of EC25 for Reduction in amyloid beta (x to 40) brain to EC25 for change in Hes-1 mRNA level in thymus in po dosed FVB mouse
[50] = system: Homo sapiens; assay: Reduction in amyloid beta in CSF of po dosed healthy human administered as gelatin capsule measured after 5 hrs post administration; format: functional; design: scale not given: the % may be the effect or the level left
[51] = system: Mus musculus; assay: Reduction in amyloid beta (x to 40) in FVB mouse cortex at 30 mg/kg, po administered as single dose measured at 6 hrs post administration; format: functional; design: scale not given: the % may be the effect or the level left
[52] = system: Mus musculus; assay: Toxicity in FVB mouse assessed as thymus atrophy compound administered orally bid for 7 days; format: organism-based; conditions: in vivo, po, 168 h
[53] = system: Mus musculus; assay: Toxicity in FVB mouse assessed as goblet cell hyperplasia in intestine compound administered orally bid for 7 days; format: organism-based; conditions: in vivo, po, 168 h

Stability [1]: 81%
concentration at 3 h [2]: 79 nM
solubility [5]: 100 µg/mL (≈ 228 µM)
Stability [6]: 87%
concentration at 3 h [7]: 2600 nM
Stability [8]: 80%
Stability [9]: 91%
CLH [10]: 42%
IC50 [12]: 0.1 nM
AUC [17]: 11 µM
AUC [18]: 4.7 µM
AUC [19]: 4.1 µM
bioavailability [20]: 92%
AUC [21]: 0.14 µM
concentration at 3 h [22]: 45 nM
Stability [23]: 90%
Ratio IC50 [24]: 17
concentration at 3 h [25]: 3500 nM
concentration at 3 h [26]: 1000 nM
Stability [27]: 91%
concentration at 3 h [28]: 1200 nM
Stability [30]: 85%
IC50 [31]: 1.7 nM
Stability [33]: 80%
AUC [34]: 0.24 µM
concentration at 3 h [36]: 220 nM
AUC [37]: 12 µM
Papp [38]: 8.8 ×10⁻⁶ cm/s
clearance [39]: 23 mL/min/kg
concentration at 3 h [40]: 14 nM
AUC [41]: 0.92 µM
logP [43]: 3.65
AUC [45]: 0.57 µM
Structure (SMILES): O=S(=O)(c1ccc(C(F)(F)F)nc1)N1c2ccc(F)cc2-c2n[nH]cc2[C@H]1C1CC1
Activity [3]: -21%
Activity [4]: -44%
ED50 [11]: 20 nM
ED50 [13]: 0.28 nM
Activity [14]: -46%
Activity [15]: 62%
Activity [16]: 11%
Activity [29]: 61%
Activity [32]: 34%
Activity [35]: Toxic
Activity [42]: 56%
Ratio ED50 [44]: 71

Stability [1]: 66%
concentration at 3 h [2]: 190 nM
solubility [5]: 3 µg/mL (≈ 6.59 µM)
Stability [6]: 90%
concentration at 3 h [7]: 7200 nM
Stability [8]: 72%
Stability [9]: 90%
CLH [10]: 40%
IC50 [12]: 0.34 nM
AUC [18]: 0.68 µM
AUC [19]: 7 µM
AUC [21]: 0.19 µM
concentration at 3 h [22]: 120 nM
Stability [23]: 88%
Ratio IC50 [24]: 19
concentration at 3 h [25]: 3000 nM
concentration at 3 h [26]: 2100 nM
Stability [27]: 90%
concentration at 3 h [28]: 900 nM
Stability [30]: 80%
IC50 [31]: 6.6 nM
Stability [33]: 75%
AUC [34]: 0.64 µM
concentration at 3 h [36]: 520 nM
clearance [39]: 22 mL/min/kg
concentration at 3 h [40]: 31 nM
AUC [41]: 2.1 µM
logP [43]: 3.91
AUC [45]: 0.68 µM
Structure (SMILES): O=S(=O)(c1ccc(C(F)(F)F)cc1)N1c2cc(F)c(F)cc2-c2n[nH]cc2[C@H]1C1CC1
EC25(unbound) [46]: 0.034 nM
Activity [3]: -17%
Activity [4]: -14%
ED50 [11]: 86 nM
Activity [47]: Non-toxic
ED50 [13]: 1.1 nM
Activity [14]: -25%
Activity [15]: 64%
Activity [48]: Non-toxic
Selectivity ratio [49]: 57
Activity [29]: 61%
Activity [32]: 32%
Activity [50]: 31%
Activity [35]: Toxic
Activity [51]: 82%
Activity [52]: Non-toxic
Activity [53]: Non-toxic
Activity [42]: 48%
Ratio ED50 [44]: 78

bioavailability [20]: 30%
Papp [38]: 17.8 ×10⁻⁶ cm/s
Structure (SMILES): CC(C)NCC(O)COc1cccc2ccccc12 (configuration not stated) [PROPRANOLOL]

Stability [1]: 54%
Stability [6]: 0%
Stability [8]: 89%
Stability [9]: 0%
IC50 [12]: 1.6 nM
Stability [23]: 36%
Ratio IC50 [24]: 6.9
Stability [27]: 75%
Stability [30]: 78%
IC50 [31]: 11 nM
Stability [33]: 78%
Structure (SMILES): O=S(=O)(N[C@H](CO)C(C(F)(F)F)C(F)(F)F)c1ccc(Cl)s1 [BEGACESTAT]
ED50 [11]: 350 nM
ED50 [13]: 7.8 nM
Activity [15]: 33%
Activity [29]: 20%
Activity [42]: 18%
Ratio ED50 [44]: 45
